Results as given in patent US20230265151A1, “GIP/GLP1 CO-AGONIST COMPOUNDS” (priority 2020, published 2023).
Where two headings read alike, the source gives them in different places.

Experiments:
[1] = target: T1, human GLP-1 receptor (hGLP-1R) (Homo sapiens, UniProt P43220); assay: [125I]-GLP-1 binding, SPA with membranes of HEK293 cells expressing hGLP-1R
T1 construct: expressed in transfected cells; crude membranes
Procedure: Two methods are used for the preparation of crude cell membranes.
Method 1: Frozen cell pellets are lysed on ice in hypotonic buffer containing 50 mM Tris HCl, pH 7.5, and Roche Complete™ Protease Inhibitors with EDTA. […] The homogenate is centrifuged at 4° C. at 1100 × g for 10 minutes. The supernatant is collected and stored on ice while the pellets are resuspended in homogenization buffer and rehomogenized as described above. The homogenate is centrifuged at 1100 × g for 10 minutes. The second supernatant is combined with the first supernatant and centrifuged at 35000 × g for 1 hour at 4° C. The resulting membrane pellet is resuspended in homogenization buffer containing protease inhibitors at approximately 1 to 3 mg/mL, quick frozen in liquid nitrogen and stored as aliquots in a -80° C. freezer until use.
The homogenate is centrifuged at 4° C. at 1800 × g for 15 minutes. The supernatant is collected and stored on ice while the pellets are resuspended in homogenization buffer (without DNAse I) and rehomogenized as described above. The homogenate is centrifuged at 1800 × g for 15 minutes. The second supernatant is combined with the first supernatant and centrifuged an additional time at 1800 × g for 15 minutes. The overall supernatant is then centrifuged at 25000 × g for 30 minutes at 4° C. The resulting membrane pellet is resuspended in homogenization buffer (without DNAse I) containing protease inhibitors at approximately 1 to 3 mg/mL and stored as aliquots in a -80° C. freezer until use.
The human GLP-1 receptor binding assay is performed using an SPA format with WGA beads. The binding buffer contains 25 mM HEPES, pH 7.4, 2.5 mM CaCl2, 1 mM MgCl2, 0.1% (w/v) bacitracin, 0.003% (w/v) TWEEN®-20, and Roche Complete™ Protease Inhibitors without EDTA.
Raw CPM data for concentration curves of peptides, Gcg, GLP-1, or GIP are converted to percent inhibition by subtracting nonspecific binding (binding in the presence of excess unlabeled Gcg, GLP-1, or GIP, respectively) from the individual CPM values and dividing by the total binding signal, also corrected by subtracting nonspecific binding. Data are analyzed using four-parameter (curve maximum, curve minimum, IC50, Hill slope) nonlinear regression routines (Genedata Screener, version 12.0.4, Genedata AG, Basal, Switzerland). […] Values for Ki are reported as the geometric mean, with error expressed as the standard error of the mean (SEM) and n is equal to the number of independent replicates (determined in assays performed on different days). Geometric Means are calculated as follows: […]
The Ki Ratio (Ki for native control peptide/Ki for test compound) at each receptor and each species is calculated. The Ki Ratio is a rapid indication of the apparent affinity of a peptide compared to the native control peptide.
n=⅟x means that only one value out of the total number of replicates (x) is used to express the mean. SEM is only calculated when n=2 or greater non-qualified results exist. Means are expressed as GeoMetric means with the standard error of the mean (SEM) and the number of replicates (n) indicated in parenthesis.

hGCGR = target: T2, hGCGR (Homo sapiens, UniProt P47871); assay: Functional cAMP formation (HTRF) in HEK-293 clonal cells expressing hGCGR, 0.1% bovine casein, without or with 1.0% human serum albumin; type: cell-based; conditions: geometric mean
T2 construct: expressed in transfected cells
In short: (§1)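 Readings of the HTRF 665/620 nm ratio, which falls as cAMP rises, were converted to nM cAMP using a standard curve after 30 min peptide exposure at 37° C.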

hGIPR = target: T3, hGIPR (Homo sapiens, UniProt P48546); assay: Functional cAMP formation (HTRF) in HEK-293 clonal cells expressing hGIPR, 0.1% bovine casein, without or with 1.0% human serum albumin; type: cell-based; conditions: for EC50: geometric mean
T3 construct: expressed in transfected cells
T3 sequence (P48546 22-466): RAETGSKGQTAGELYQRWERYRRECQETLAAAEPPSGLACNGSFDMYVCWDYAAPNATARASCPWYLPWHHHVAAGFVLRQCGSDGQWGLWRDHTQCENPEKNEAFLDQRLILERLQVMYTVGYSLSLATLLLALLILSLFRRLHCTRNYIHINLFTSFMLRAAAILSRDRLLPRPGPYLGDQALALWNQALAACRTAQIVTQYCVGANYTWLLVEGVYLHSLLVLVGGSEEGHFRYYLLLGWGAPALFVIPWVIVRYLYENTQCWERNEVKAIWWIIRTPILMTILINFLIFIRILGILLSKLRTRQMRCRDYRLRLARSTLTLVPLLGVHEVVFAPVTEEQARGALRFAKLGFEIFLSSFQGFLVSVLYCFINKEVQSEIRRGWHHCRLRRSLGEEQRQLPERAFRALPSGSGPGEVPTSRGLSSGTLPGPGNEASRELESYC
In short: as §1

hGLP-1R = hGLP-1R (Homo sapiens, UniProt P43220); assay: Functional cAMP formation (HTRF) in HEK-293 clonal cells expressing hGLP-1R, 0.1% bovine casein, without or with 1.0% human serum albumin; type: cell-based; set-up: expressed in transfected cells; conditions: for EC50: geometric mean
In short: as §1

[2] = human GLP-1R, geometric mean (SEM, n), read-out: Binding Affinity Ki, nM (SEM, n) hGLP-1R
[3] = 0.1% bovine casein and 1.0% human serum albumin, 37° C., read-out: hGCGR EC50, nM (SEM, n)
[4] = cAMP, incubated at 37° C., 0.1% bovine casein (no human serum albumin), read-out: hGCGR EC50, nM (SEM, n)
[5] = 0.1% bovine casein and 1.0% human serum albumin, 37° C., read-out: hGIPR EC50, nM (SEM, n)
[6] = HEK293, 0.1% bovine casein and 1.0% human serum albumin, 37° C., percent of maximal response to GIP(1-42)NH2, read-out: hGIPR Emax, % ± SEM
[7] = cAMP, incubated at 37° C., 0.1% bovine casein (no human serum albumin), read-out: hGIPR EC50, nM (SEM, n)
[8] = 0.1% bovine casein and 1.0% human serum albumin, 37° C., read-out: hGLP-1R EC50, nM (SEM, n)
[9] = cAMP, incubated at 37° C., 0.1% bovine casein (no human serum albumin), read-out: hGLP-1R EC50, nM (SEM, n)

T2 sequence (P47871 26-477): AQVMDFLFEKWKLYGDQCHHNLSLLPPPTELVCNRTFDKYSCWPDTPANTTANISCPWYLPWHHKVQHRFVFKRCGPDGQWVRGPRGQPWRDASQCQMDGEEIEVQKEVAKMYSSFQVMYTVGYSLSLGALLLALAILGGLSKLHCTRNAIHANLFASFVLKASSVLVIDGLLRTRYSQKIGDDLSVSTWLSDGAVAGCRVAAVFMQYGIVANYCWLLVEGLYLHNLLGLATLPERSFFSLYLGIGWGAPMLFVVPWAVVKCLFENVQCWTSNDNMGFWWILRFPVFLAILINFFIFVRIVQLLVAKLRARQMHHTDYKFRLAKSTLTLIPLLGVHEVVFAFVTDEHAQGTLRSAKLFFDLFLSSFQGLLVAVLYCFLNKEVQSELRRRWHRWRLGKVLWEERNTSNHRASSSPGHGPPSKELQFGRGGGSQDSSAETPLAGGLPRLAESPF
T1 sequence (P43220 24-463): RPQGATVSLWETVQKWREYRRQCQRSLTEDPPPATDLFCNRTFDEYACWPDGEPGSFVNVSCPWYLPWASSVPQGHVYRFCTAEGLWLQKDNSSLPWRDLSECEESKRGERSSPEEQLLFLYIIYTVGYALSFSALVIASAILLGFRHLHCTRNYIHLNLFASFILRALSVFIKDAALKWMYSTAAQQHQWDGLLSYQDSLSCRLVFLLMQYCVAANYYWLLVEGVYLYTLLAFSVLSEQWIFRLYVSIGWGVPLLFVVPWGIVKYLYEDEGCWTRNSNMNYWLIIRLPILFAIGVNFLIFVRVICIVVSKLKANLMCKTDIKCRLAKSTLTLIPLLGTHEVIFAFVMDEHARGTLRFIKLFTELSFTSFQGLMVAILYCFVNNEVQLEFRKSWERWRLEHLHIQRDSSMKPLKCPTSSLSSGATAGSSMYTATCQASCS
Chain of hGLP-1R (P43220 24-463): as above

SMILES	Ki [1, 2]	EC50 (hGCGR; [3])	EC50 (hGCGR; [4])	EC50 (hGIPR; [5])	Emax (hGIPR; [6])	Emax (hGIPR; HEK293, percent of maximal response to GIP(1-42)NH2, 37° C., 0.1% bovine casein, arithmetic mean, read-out: hGIPR Emax, % ± SEM)	EC50 (hGIPR; [7])	EC50 (hGLP-1R; [8])	Emax (hGLP-1R; HEK293, 0.1% bovine casein and 1.0% human serum albumin, 37° C., percent of maximal response to GLP-1(7-36)NH2, read-out: hGLP-1R Emax, % ± SEM)	EC50 (hGLP-1R; [9])	Ki [1]	EC50 (hGCGR; hGCGR EC50, nM (SEM, n), 0.1% bovine casein and 1.0% human serum albumin, 37° C.)	EC50 (hGCGR; hGCGR EC50, nM (SEM, n), cAMP, incubated at 37° C., 0.1% bovine casein (no human serum albumin))	Emax (hGIPR; HEK293, read-out: hGIPR Emax, % ± SEM, 0.1% bovine casein and 1.0% human serum albumin, 37° C., percent of maximal response to GIP(1-42)NH2)	Emax (hGIPR; HEK293, read-out: hGIPR Emax, % ± SEM, percent of maximal response to GIP(1-42)NH2, 37° C., 0.1% bovine casein, arithmetic mean)	EC50 (hGIPR; hGIPR EC50, nM (SEM, n), cAMP, incubated at 37° C., 0.1% bovine casein (no human serum albumin))	EC50 (hGLP-1R; hGLP-1R EC50, nM (SEM, n), cAMP, incubated at 37° C., 0.1% bovine casein (no human serum albumin))
CC[C@H](C)[C@H](NC(=O)[C@H](CCCN)NC(=O)[C@H](CC(=O)O)NC(=O)[C@H](CC(C)C)NC(=O)[C@](C)(CC(C)C)NC(=O)[C@@H](NC(=O)[C@H](CO)NC(=O)[C@H](Cc1ccncc1)NC(=O)[C@H](CC(=O)O)NC(=O)[C@H](CO)NC(=O)[C@@H](NC(=O)[C@](C)(Cc1ccccc1F)NC(=O)[C@@H](NC(=O)CNC(=O)[C@H](CCC(=O)O)NC(=O)C(C)(C)NC(=O)[C@@H](N)Cc1ccc(O)cc1)[C@@H](C)O)[C@@H](C)O)[C@@H](C)CC)C(=O)N[C@@H](C)C(=O)N[C@@H](CCC(N)=O)C(=O)NC(C)(C)C(=O)N[C@@H](CCCCNC(=O)COCCOCCNC(=O)COCCOCCNC(=O)CC[C@H](NC(=O)CCCCCCCCCCCCC(=O)O)C(=O)O)C(=O)N[C@@H](Cc1ccccc1)C(=O)N[C@H](C(=O)N[C@H](CCC(=O)O)C(=O)N[C@@](C)(Cc1ccc(O)cc1)C(=O)N[C@@H](CC(C)C)C(=O)N[C@H](C(=O)N[C@@H](CCCCNC(=O)COCCOCCNC(=O)COCCOCCNC(=O)CC[C@H](NC(=O)CCCCCCCCCCCCC(=O)O)C(=O)O)C(=O)NCC(=O)NCC(=O)N1CCC[C@H]1C(=O)N[C@@H](CO)C(=O)N[C@@H](CO)C(=O)NCC(=O)N[C@@H](C)C(=O)N1CCC[C@H]1C(=O)N1CCC[C@H]1C(=O)N1CCC[C@H]1C(=O)N[C@@H](CO)C(N)=O)[C@@H](C)CC)[C@@H](C)CC [Example 73]	3.38 nM	> 9950 nM	> 9950 nM	2.16 nM	80.2%	97.1 ± 2.7%	0.0207 nM	56.2 nM	109%	0.437 nM							
CCCCCCCCCCCC(=O)N[C@@H](CCC(=O)NCCOCCOCC(=O)NCCOCCOCC(=O)NCCCC[C@H](NC(=O)[C@H](CCCN)NC(=O)[C@H](CC(=O)O)NC(=O)[C@H](CC(C)C)NC(=O)[C@](C)(CC(C)C)NC(=O)[C@@H](NC(=O)[C@H](CO)NC(=O)[C@H](Cc1ccncc1)NC(=O)[C@H](CC(=O)O)NC(=O)[C@H](CO)NC(=O)[C@@H](NC(=O)[C@](C)(Cc1ccccc1F)NC(=O)[C@@H](NC(=O)CNC(=O)[C@H](CCC(=O)O)NC(=O)C(C)(C)NC(=O)[C@@H](N)Cc1ccc(O)cc1)[C@@H](C)O)[C@@H](C)O)[C@@H](C)CC)C(=O)N[C@@H](C)C(=O)N[C@@H](CCC(N)=O)C(=O)NC(C)(C)C(=O)N[C@@H](CCCCNC(=O)COCCOCCNC(=O)COCCOCCNC(=O)CC[C@H](NC(=O)CCCCCCCCCCC)C(=O)O)C(=O)N[C@@H](Cc1ccccc1)C(=O)N[C@H](C(=O)N[C@H](CCC(=O)O)C(=O)N[C@@](C)(Cc1ccc(O)cc1)C(=O)N[C@@H](CC(C)C)C(=O)N[C@H](C(=O)N[C@@H](CCC(=O)O)C(=O)NCC(=O)NCC(=O)N1CCC[C@H]1C(=O)N[C@@H](CO)C(=O)N[C@@H](CO)C(=O)NCC(=O)N[C@@H](C)C(=O)N1CCC[C@H]1C(=O)N1CCC[C@H]1C(=O)N1CCC[C@H]1C(=O)N[C@@H](CO)C(N)=O)[C@@H](C)CC)[C@@H](C)CC)C(=O)O [Example 137]	0.25 nM	> 9950 nM	> 9950 nM	0.728 nM	90.3 ± 0.387%		0.0116 nM	5.02 nM		0.134 nM							
CC[C@H](C)[C@H](NC(=O)[C@H](CCCN)NC(=O)[C@H](CC(=O)O)NC(=O)[C@H](CC(C)C)NC(=O)[C@](C)(CC(C)C)NC(=O)[C@@H](NC(=O)C(C)(C)NC(=O)[C@H](Cc1ccncc1)NC(=O)[C@H](CC(=O)O)NC(=O)[C@H](CO)NC(=O)[C@@H](NC(=O)[C@](C)(Cc1ccccc1F)NC(=O)[C@@H](NC(=O)CNC(=O)[C@H](CCC(=O)O)NC(=O)C(C)(C)NC(=O)[C@@H](N)Cc1ccc(O)cc1)[C@@H](C)O)[C@@H](C)O)[C@@H](C)CC)C(=O)N[C@@H](C)C(=O)N[C@@H](CCC(N)=O)C(=O)NC(C)(C)C(=O)N[C@@H](CCC(=O)O)C(=O)N[C@@H](Cc1ccccc1)C(=O)N[C@H](C(=O)N[C@@H](CCCCNC(=O)COCCOCCNC(=O)COCCOCCNC(=O)CC[C@H](NC(=O)CCCCCCCCCOc1ccc(C(=O)O)cc1)C(=O)O)C(=O)N[C@@](C)(Cc1ccc(O)cc1)C(=O)N[C@@H](CC(C)C)C(=O)N[C@H](C(=O)N[C@@H](CCCCNC(=O)COCCOCCNC(=O)COCCOCCNC(=O)CC[C@H](NC(=O)CCCCCCCCCOc1ccc(C(=O)O)cc1)C(=O)O)C(=O)NCC(=O)NCC(=O)N1CCC[C@H]1C(=O)N[C@@H](CO)C(=O)N[C@@H](CO)C(=O)NCC(=O)N[C@@H](C)C(=O)N1CCC[C@H]1C(=O)N1CCC[C@H]1C(=O)N1CCC[C@H]1C(=O)N[C@@H](CO)C(N)=O)[C@@H](C)CC)[C@@H](C)CC [Example 246]											0.557 nM	> 9950 nM	> 9950 nM	91%	96.9%	0.0223 nM	0.441 nM
